Data: ChEMBL document CHEMBL5357006, “Pestanoid A, a Rearranged Pimarane Diterpenoid Osteoclastogenesis Inhibitor from a Marine Mesophotic Zone Chalinidae Sponge-Associated Fungus, Pestalotiopsis sp. NBUF145” (J Nat Prod, 2024)
The source made the active and inactive calls. No cut-off for these calls is given here.

What was measured:
Monocyte [1] = assay: Anti-osteoclastogensis in C57BL/6 mouse bone marrow monocytes assessed as inhibition of RANKL/M-CSF induced osteoclastogenesis at 10 uM incubated for 5 days relative to control; type: functional; details: C57BL/6, Monocyte, 120 h, time 5 day
Monocyte [2] = assay: Anti-osteoclastogensis in C57BL/6 mouse bone marrow monocytes assessed as inhibition of RANKL/M-CSF induced osteoclastogenesis at 10 uM incubated for 5 days; type: functional, cell-based; details: C57BL/6, Monocyte, 120 h
[3] = Cytotoxicity against C57BL/6 mouse bone marrow monocytes assessed as reduction in cell viability incubated for 48 hrs by MTT assay; type: toxicity, cell-based, Monocyte
[4] = Selectivity index, ratio of CC50 for cytotoxicity against C57BL/6 mouse bone marrow monocytes to IC50 for anti-osteoclastogensis in C57BL/6 mouse bone marrow monocytes assessed as inhibition of RANKL/M-CSF induced osteoclastogenesis; type: cell-based, Monocyte; details: read-out: Ratio CC50/IC50
RAW264.7 [5] = assay: Inhibition of RANKL-induced MAPK signaling in mouse RAW264.7 cells assessed as inhibition of ERK1/2 phosphorylation incubated for 60 mins in presence of RANKL by Western blot analysis; type: cell-based; details: dose 5-10 µM
RAW264.7 [6] = assay: Inhibition of RANKL-induced MAPK signaling in mouse RAW264.7 cells assessed as inhibition of JNK1/2 phosphorylation incubated for 60 mins in presence of RANKL by Western blot analysis; type: cell-based; details: dose 5-10 µM
RAW264.7 [7] = assay: Inhibition of RANKL-induced MAPK signaling in mouse RAW264.7 cells assessed as inhibition of p38 phosphorylation incubated for 60 mins in presence of RANKL by Western blot analysis; type: cell-based; details: dose 5-10 µM
RAW264.7 [8] = assay: Inhibition of RANKL-induced NFkappaB signaling in mouse RAW264.7 cells assessed as inhibition of NFkappab nuclear translocation at 10 uM incubated for 60 mins in presence of RANKL by Western blot analysis; type: cell-based

## C=C[C@@]1(C)CC(=O)O[C@H]1C1=CC[C@H]2C(C)(C)CC[C@H](O)[C@]2(C)C1=O
Monocyte [1]
  inhibition at 10 µM: 88.4%
Monocyte [2]
  IC50: 3 µM
[3]
  CC50 at 48 h: > 30 µM
[4]
  selectivity ratio: > 10
RAW264.7 [5]
  inhibition: Dose-Dependent Effect
RAW264.7 [6]
  inhibition: Dose-Dependent Effect
RAW264.7 [7]
  inhibition: Dose-Dependent Effect
RAW264.7 [8]
  inhibition: Active

## C=C1CC[C@@H]2OC(=O)C=C(C[C@]3(C)CC(=O)O[C@H]3CO)C(=O)[C@]2(C)[C@@H]1C
Monocyte [1]
  inhibition at 10 µM: 75%
Monocyte [2]
  IC50: 4.2 µM
[3]
  CC50 at 48 h: > 30 µM
[4]
  selectivity ratio: > 7
RAW264.7 [5]
  inhibition: Dose-Dependent Effect
RAW264.7 [6]
  inhibition: Dose-Dependent Effect
RAW264.7 [7]
  inhibition: Dose-Dependent Effect
RAW264.7 [8]
  inhibition: Active
